Experimental data published in patent publication US12071404B2, “Aza (indole)-, benzothiophene-, and benzofuran-3-sulfonamides” (UCB Pharma GmbH, priority 2016, dated 2024).

biological target: GPR17 (Homo sapiens, UniProt Q13304); assay: Calcium mobilization functional assay (GPR17 Ca2+ assay); format: cell-based; design: host or cells: Flp-In T-REx CHO; settings: CHO hGPR17 cells, inhibition of 50 nM MDL29,951, Calcium 5 dye, FLIPR; read-out: Ca2+ assay pIC50 (converted)
Protocol: Flp-In T-REx CHO cells stably expressing human GPR17 receptor (CHO hGPR17) from Evi Kostenis' lab (Bonn University, Germany) were cultured at 37° C. in a humidified atmosphere of 5% CO2. Cells were grown in DMEM with Nutrient Mixture F-12 supplemented with hygromycin B (500 μg/mL) and blasticidin (30 μg/mL). Expression from the Flp-In locus was induced by treatment with doxycycline (1 μg/mL) for 16-20 h prior assays.
GPR17 is a G-protein coupled receptor. GPR17 activation triggers Gq-type G-protein signaling resulting in endoplasmic reticulum calcium (Ca^2+) stores release in cytosol which can be measured using Calcium 5 dye, a fluorescent indicator dye of cytosolic Ca^2+ levels. All Examples were tested in GPR17 Ca^2+ assay to determine (screen) their GPR17 modulating activity.
CHO hGPR17 were defrosted and seeded at a density of 20,000 cells per well into black 384-well plates with clear bottom. Cells were incubated overnight at 37° C. in a humidified atmosphere of 5% CO2. Sixteen to twenty hours after seeding, CHO hGPR17 were loaded for 60 min with Calcium 5 dye, a cytosolic Ca^2+ indicator fluorescent dye, according to manufacturer's instructions. Fluorescent signal relative to cytosolic Ca^2+ concentration was recorded over time at room temperature in FLIPR Tetra reader. […] Then, 50 nM MDL29,951, a GPR17 agonist, was added to the cells. Inhibitory effects of varying concentrations test compounds were measured and resulting plC50s were determined. […] Analysis and curve fitting were performed in ActivityBase XE using XLfit 4-parameter logistic equation y=A+((B−A)/(1+((C/x)^D))) where A, B, C and D stand for minimum y, maximum y, IC50 and slope, respectively.
The activities of the Example compounds tested are depicted in the table in Section B2B below. The activity ranges A, B and C refer to plC50 values in the Ca^2+ assay as follows: “A”: plC50<7.5, “B”: plC50 7.5<x≤ 8.5, “C”: plC50>8.5

Sequence of GPR17 (Q13304 whole entry): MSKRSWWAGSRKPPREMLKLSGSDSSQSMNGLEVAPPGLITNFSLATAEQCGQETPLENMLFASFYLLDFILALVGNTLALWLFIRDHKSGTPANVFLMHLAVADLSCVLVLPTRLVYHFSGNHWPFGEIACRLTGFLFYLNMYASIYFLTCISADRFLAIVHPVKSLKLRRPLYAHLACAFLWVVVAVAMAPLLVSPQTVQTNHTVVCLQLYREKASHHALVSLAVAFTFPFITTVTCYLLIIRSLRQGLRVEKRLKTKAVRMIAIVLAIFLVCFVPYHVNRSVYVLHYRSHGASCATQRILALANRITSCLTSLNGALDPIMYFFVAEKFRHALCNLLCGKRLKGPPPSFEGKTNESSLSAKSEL

Row | Structure (SMILES) | IC50 [nM]
1 | O=S(=O)(Nc1cc(F)ccc1Br)c1c[nH]c2cc(Cl)ccc12 [Compound I-38, N-(2-bromo-5-fluorophenyl)-6-chloro-1H-indole-3-sulfonamide] | > 31.6
2 | Cc1ccc(NS(=O)(=O)c2c[nH]c3c2ccc2ccccc23)c(F)c1 [Compound I-121, N-(2-fluoro-4-methylphenyl)-1H-benzo[g]indole-3-sulfonamide] | > 31.6
3 | N#Cc1ccc(NS(=O)(=O)c2c[nH]c3cc(C(F)(F)F)ccc23)cc1 [Compound I-190, N-(4-cyanophenyl)-6-(trifluoromethyl)-1H-indole-3-sulfonamide] | < 3.16
4 | N#CCc1ccc(NS(=O)(=O)c2c[nH]c3cc(Cl)ccc23)cc1 [Compound I-180, 6-chloro-N-[4-(cyanomethyl)phenyl]-1H-indole-3-sulfonamide] | > 31.6
5 | Cc1noc(C)c1-c1ccc2c(S(=O)(=O)Nc3ccc(C#N)cc3F)c[nH]c2c1 [Compound I-234, N-(4-cyano-2-fluorophenyl)-6-(3,5-dimethyl-1,2-oxazol-4-yl)-1H-indole-3-sulfonamide] | > 31.6
6 | N#Cc1cc(F)c(NS(=O)(=O)c2c[nH]c3nc(Cl)ccc23)cc1F [Compound I-176, 6-chloro-N-(4-cyano-2,5-difluorophenyl)-1H-pyrrolo[2,3-b]pyridine-3-sulfonamide] | 3.16 to 31.6
7 | Cc1cc2c(S(=O)(=O)Nc3ccc(C#N)cc3)c[nH]c2cc1Br [Compound I-18, 6-bromo-N-(4-cyanophenyl)-5-methyl-1H-indole-3-sulfonamide] | 3.16 to 31.6
8 | N#Cc1ccc(NS(=O)(=O)c2c[nH]c3cc(OCC4CCCO4)ccc23)c(F)c1 (stereo not drawn) [Compound I-222, N-(4-cyano-2-fluorophenyl)-6-(tetrahydrofuran-2-ylmethoxy)-1H-indole-3-sulfonamide] | > 31.6
9 | N#Cc1ccc(NS(=O)(=O)c2c[nH]c3cc(F)c(F)cc23)cc1 [Compound I-120, N-(4-cyanophenyl)-5,6-difluoro-1H-indole-3-sulfonamide] | > 31.6
10 | COc1ccc2c(S(=O)(=O)Nc3cc(F)c(F)cc3F)c[nH]c2c1 [Compound I-2, 6-methoxy-N-(2,4,5-trifluorophenyl)-1H-indole-3-sulfonamide] | > 31.6
11 | N#Cc1ccc(NS(=O)(=O)c2c[nH]c3cc4c(cc23)OCO4)cc1 [Compound I-19, N-(4-cyanophenyl)-5H-[1,3]dioxolo[4,5-f]indole-7-sulfonamide] | > 31.6
12 | O=S(=O)(Nc1cccc(F)c1Cl)c1c[nH]c2nc(Cl)ccc12 [Compound I-87, 6-chloro-N-(2-chloro-3-fluorophenyl)-1H-pyrrolo[2,3-b]pyridine-3-sulfonamide] | > 31.6
13 | COc1ccc2c(S(=O)(=O)Nc3cccc4nsnc34)c[nH]c2c1 [Compound I-64, N-(2,1,3-benzothiadiazol-4-yl)-6-methoxy-1H-indole-3-sulfonamide] | > 31.6
14 | N#Cc1ccc(NS(=O)(=O)c2c[nH]c3cc(F)ccc23)cc1 [Compound I-171, N-(4-cyanophenyl)-6-fluoro-1H-indole-3-sulfonamide] | > 31.6
15 | O=S(=O)(Nc1ccc2nsnc2c1)c1c[nH]c2cc(F)ccc12 [Compound I-169, N-(2,1,3-benzothiadiazol-5-yl)-6-fluoro-1H-indole-3-sulfonamide] | > 31.6
16 | COC(=O)c1ccc(NS(=O)(=O)c2c[nH]c3cc(Cl)ccc23)cc1 [Compound I-6, methyl 4-{[(6-chloro-1H-indol-3-yl)sulfonyl]amino}benzoate] | > 31.6
17 | N#Cc1ccc(NS(=O)(=O)c2c[nH]c3ccccc23)c(F)c1 [Compound I-105, N-(4-cyano-2-fluorophenyl)-1H-indole-3-sulfonamide] | > 31.6
18 | N#Cc1ccc(NS(=O)(=O)c2c[nH]c3cc(Cl)ccc23)c2nsnc12 [Compound I-163, 6-chloro-N-(7-cyano-2,1,3-benzothiadiazol-4-yl)-1H-indole-3-sulfonamide] | > 31.6
19 | CS(=O)(=O)c1ccc2c(S(=O)(=O)Nc3cccc4c3OCO4)c[nH]c2c1 [Compound I-33, N-(1,3-benzodioxol-4-yl)-6-(methylsulfonyl)-1H-indole-3-sulfonamide] | > 31.6
20 | O=S(=O)(Nc1cccc2c1OC(F)(F)O2)c1c[nH]c2nc(Br)ccc12 [Compound I-102, 6-bromo-N-(2,2-difluoro-1,3-benzodioxol-4-yl)-1H-pyrrolo[2,3-b]pyridine-3-sulfonamide] | 3.16 to 31.6

Row | Structure (SMILES) | IC50 [nM]
21 | O=S(=O)(Nc1cc(F)ccc1F)c1c[nH]c2cc3c(cc12)OCO3 [Compound I-30, N-(2,5-difluorophenyl)-5H-[1,3]dioxolo[4,5-f]indole-7-sulfonamide] | > 31.6
22 | O=S(=O)(Nc1ccc(C(F)(F)F)cn1)c1c[nH]c2cc(Cl)ccc12 [Compound I-211, 6-chloro-N-[5-(trifluoromethyl)pyridin-2-yl]-1H-indole-3-sulfonamide] | > 31.6
23 | N#Cc1cc(F)c(NS(=O)(=O)c2c[nH]c3c(Br)cccc23)cc1F [Compound I-167, 7-bromo-N-(4-cyano-2,5-difluorophenyl)-1H-indole-3-sulfonamide] | 3.16 to 31.6
24 | O=S(=O)(Nc1cc(F)cc(F)c1)c1c[nH]c2nc(Br)ccc12 [Compound I-89, 6-bromo-N-(3,5-difluorophenyl)-1H-pyrrolo[2,3-b]pyridine-3-sulfonamide] | > 31.6
25 | O=S(=O)(Nc1cc(F)c(F)cc1F)c1c[nH]c2ncc(I)cc12 [Compound I-103, 5-iodo-N-(2,4,5-trifluorophenyl)-1H-pyrrolo[2,3-b]pyridine-3-sulfonamide] | > 31.6
26 | O=S(=O)(Nc1ccc(Cl)cc1F)c1c[nH]c2cc3c(cc12)OCO3 [Compound I-43, N-(4-chloro-2-fluorophenyl)-5H-[1,3]dioxolo[4,5-f]indole-7-sulfonamide] | > 31.6
27 | O=S(=O)(Nc1ccc2nsnc2c1)c1c[nH]c2c3c(ccc12)CCC3 [Compound I-158, N-(2,1,3-benzothiadiazol-5-yl)-1,6,7,8-tetrahydrocyclopenta[g]indole-3-sulfonamide] | > 31.6
28 | O=S(=O)(Nc1ccc(F)cc1F)c1c[nH]c2ncc(I)cc12 [Compound I-82, N-(2,4-difluorophenyl)-5-iodo-1H-pyrrolo[2,3-b]pyridine-3-sulfonamide] | > 31.6
29 | COCc1ccc(NS(=O)(=O)c2c[nH]c3cc(Cl)ccc23)cc1 [Compound I-122, 6-chloro-N-(4-(methoxymethyl)phenyl)-1H-indole-3-sulfonamide] | > 31.6
30 | O=S(=O)(Nc1ccc(I)cc1F)c1c[nH]c2cc(C(F)(F)F)ccc12 [Compound I-42, N-(2-fluoro-4-iodophenyl)-6-(trifluoromethyl)-1H-indole-3-sulfonamide] | > 31.6
31 | Cc1cc(NS(=O)(=O)c2c[nH]c3cc(Cl)ccc23)c(F)cc1Cl [Compound I-214, 6-chloro-N-(4-chloro-2-fluoro-5-methylphenyl)-1H-indole-3-sulfonamide] | > 31.6
32 | O=S(=O)(Nc1cccc2nsnc12)c1c[nH]c2c(Br)cccc12 [Compound I-111, N-(2,1,3-benzothiadiazol-4-yl)-7-bromo-1H-indole-3-sulfonamide] | > 31.6
33 | N#Cc1ccc(NS(=O)(=O)c2c[nH]c3cc(-c4ccncc4)ccc23)c(F)c1 [Compound I-231, N-(4-cyano-2-fluorophenyl)-6-(pyridin-4-yl)-1H-indole-3-sulfonamide] | > 31.6
34 | O=S(=O)(Nc1ccc(F)c2nonc12)c1c[nH]c2cc(Cl)ccc12 [Compound I-197, 6-chloro-N-(7-fluoro-2,1,3-benzoxadiazol-4-yl)-1H-indole-3-sulfonamide] | > 31.6
35 | O=S(=O)(Nc1cc2nsnc2cc1F)c1c[nH]c2nc(Cl)ccc12 [Compound I-144, 6-chloro-N-(6-fluoro-2,1,3-benzothiadiazol-5-yl)-1H-pyrrolo[2,3-b]pyridine-3-sulfonamide] | 3.16 to 31.6
36 | O=S(=O)(Nc1cc2c(cc1F)OC(F)(F)O2)c1c[nH]c2c1ccc1cccnc12 [Compound I-70, N-(2,2,6-trifluoro-1,3-benzodioxol-5-yl)-1H-pyrrolo[3,2-h]quinoline-3-sulfonamide] | > 31.6
37 | C#Cc1ccc(NS(=O)(=O)c2c[nH]c3nc(Cl)ccc23)cc1 [Compound I-84, 6-chloro-N-(4-ethynylphenyl)-1H-pyrrolo[2,3-b]pyridine-3-sulfonamide] | > 31.6
38 | N#Cc1cc(F)c(NS(=O)(=O)c2c[nH]c3c4c(ccc23)CCC4)cc1F [Compound I-148, N-(4-cyano-2,5-difluorophenyl)-1,6,7,8-tetrahydrocyclopenta[g]indole-3-sulfonamide] | < 3.16
39 | COc1ccc2c(S(=O)(=O)Nc3cccc4c3OC(F)(F)O4)c[nH]c2c1 [Compound I-72, N-(2,2-difluoro-1,3-benzodioxol-4-yl)-6-methoxy-1H-indole-3-sulfonamide] | > 31.6
